Measured values reported in patent US4612329A, “Pharmaceutical alpha-aminoalkyl-alpha-alkylphenylacetonitriles” (Hokuriku Pharmaceutical Co., Ltd., priority 1984, dated 1986).

System: aconitine-induced arrhythmias
Test: Anti-arrhythmic action (aconitine-induced arrhythmias in mice)
Assay type: in vivo, male ddY mice
Settings: 100 mg/kg orally 60 min prior to aconitine infusion, percent increase of aconitine needed to induce arrhythmias
Protocol: 2. Anti-arrhythmic action (aconitine-induced arrhythmias in mice)
Male ddY mice weighing about 30 g were anesthetized with pentobarbital sodium given intraperitoneally. Aconitine (1.32 μg/min) was continuously infused into a tail vein 15 min posterior to pentobarbital sodium administration. […] The amount of aconitine needed to induce arrhythmias was calculated from the time taken to the onset of the first premature ventricular systoles. The test compounds (100 mg/kg) were orally given 60 min prior to aconitine infusion. Their relative potencies to quinidine were compared by the percent increase of aconitine needed to induce arrhythmias.

Row | Compound | Anti-arrhythmic action, relative potency (quinidine = 1)
1 | COc1cc(C(C#N)(CCCNCCOc2ccccc2)C(C)C)cc(OC)c1OC.Cl (stereo not drawn) [Example 3, Alpha-isopropyl-alpha-[3-(2-phenoxyethylamino)propyl]-3,4,5-trimethoxyphenylacetonitrile Hydrochloride] | 2.01
2 | COc1ccccc1OCCCNCCC(C#N)(c1cc(OC)c(OC)c(OC)c1)C(C)C.Cl (stereo not drawn) [Example 6, Alpha-isopropyl-alpha-[2-[N-[3-(2-methoxyphenoxy)propyl]-amino]ethyl]-3,4,5-trimethoxyphenylacetonitrile Hydrochloride] | 2.02
3 | COc1cc(C(C#N)(CCCNCCCOc2ccccc2N)C(C)C)cc(OC)c1OC (stereo not drawn) [Example 11, Alpha-isopropyl-alpha-[3-[N-[3-(2-aminophenoxy)propyl]amino]-propyl]-3,4,5-trimethoxyphenylacetonitrile] | 1.51
4 | COc1cccc(C(C#N)(CCCNCCOc2ccccc2OC)C(C)C)c1 (stereo not drawn) [Example 19] | 2.28
5 | COc1cccc(C(C#N)(CCCN(C)CCOc2ccccc2OC)C(C)C)c1 (stereo not drawn) [Example 20] | 1.20
6 | COc1cccc(C(C#N)(CCCNCCCOc2ccccc2OC)C(C)C)c1 (stereo not drawn) [Example 25] | 2.34
7 | COc1cccc(C(C#N)(CCCN(C)CCCOc2ccccc2OC)C(C)C)c1 (stereo not drawn) [Example 26] | 1.60
8 | COc1ccc(C(C#N)(CCCNCCCOc2ccccc2OC)C(C)C)cc1 (stereo not drawn) [Example 27] | 1.43
9 | COc1ccc(C(C#N)(CCCNCCCOc2ccccc2OC)C(C)C)cc1OC (stereo not drawn) [Example 57] | 1.52
10 | COc1ccc(C(C#N)(CCCN(C)CCCOc2ccccc2OC)C(C)C)cc1OC (stereo not drawn) [Example 58] | 1.64
11 | COc1ccccc1OCCNCCCC(C#N)(c1cc(OC)c(OC)c(OC)c1)C(C)C (stereo not drawn) [Example 84, Alpha-isopropyl-alpha-[3-[N-[2-(2-methoxyphenoxy)ethyl]amino]propyl]-3,4,5-trimethoxyphenylacetonitrile] | 2.52
12 | COc1ccccc1OCCN(C)CCCC(C#N)(c1cc(OC)c(OC)c(OC)c1)C(C)C (stereo not drawn) [Example 85] | 3.72
13 | COc1ccccc1OCCNCCCC(C)(C#N)c1cc(OC)c(OC)c(OC)c1 (stereo not drawn) [Example 88] | 1.34
14 | COc1ccccc1OCCCNCCCC(C#N)(c1cc(OC)c(OC)c(OC)c1)C(C)C (stereo not drawn) [Example 118, Alpha-isopropyl-alpha-[3-[N-[3-(2-methoxyphenoxy)propyl]amino]propyl]-3,4,5-trimethoxyphenylacetonitrile] | 2.65
15 | COc1ccccc1OCCCN(C)CCCC(C#N)(c1cc(OC)c(OC)c(OC)c1)C(C)C (stereo not drawn) [Example 119] | 2.24
16 | CCCc1ccccc1OCCCNCCCC(C#N)(c1cc(OC)c(OC)c(OC)c1)C(C)C (stereo not drawn) [Example 122] | 1.21
17 | COc1cc(C(C#N)(CCCNCCCOc2ccc(N)cc2)C(C)C)cc(OC)c1OC (stereo not drawn) [Example 126] | 1.03
18 | COc1cc(C(C#N)(CCCNCCCOc2cccc(N)c2)C(C)C)cc(OC)c1OC (stereo not drawn) [Example 128] | 2.01
19 | COc1ccc(CCN(C)CCCC(C#N)(c2cc(OC)c(OC)c(OC)c2)C(C)C)cc1OC (stereo not drawn) [Gallopamil, reference compound] | 0.30
20 | CC(C)N(CCC(C(N)=O)(c1ccccc1)c1ccccn1)C(C)C (stereo not drawn) [disopyramide, reference compound] | 0.97

System: Alpha-receptor
Test: Alpha-receptor blocking action (thoracic aorta, noradrenaline)
Design: species or system male rabbit
Settings: rabbit thoracic aorta helical strip, Krebs-Henseleit, 37° C., compound applied 30 min prior
Protocol: 3. Alpha-receptor blocking action
The thoracic aorta was excised from male rabbit and helically cut. The helical strip was mounted in a tissue bath containing Krebs-Henseleit solution maintained at 37° C. A resting tension of 2.0 g was applied to the tissue. The change in tension, which was induced by cumulative application of noradrenaline, was isometrically measured by the FD-pickup. The tissue bath solution was bubbled with a mixture of 95% O2 -5% CO2. The test compounds were applied 30 min prior to cumulative application of noradrenaline. The degree of alpha-blocking action was expressed as the pA2 value.

Row | Compound | Alpha-blocking action, pA2 value
21 | COc1ccc(C(C#N)(CCCNCCOc2ccccc2OC)C(C)C)cc1OC.O=C(O)/C=C\C(=O)O (stereo not drawn) [Example 4, Alpha-isopropyl-alpha-[3-[N-[2-(2-methoxyphenoxy)ethyl]amino]-propyl]-3,4-dimethoxyphenylacetonitrile Maleate] | 8.25
22 | COc1ccc(C(C#N)(CCCNCCOc2ccccc2OC)C(C)C)cc1 (stereo not drawn) [Example 21] | 8.02
23 | COc1ccccc1OCCNCCCC(C#N)(c1cc(OC)c(OC)c(OC)c1)C(C)C (stereo not drawn) [Example 84, Alpha-isopropyl-alpha-[3-[N-[2-(2-methoxyphenoxy)ethyl]amino]propyl]-3,4,5-trimethoxyphenylacetonitrile] | 8.42
24 | COc1ccccc1OCCNCCCC(C)(C#N)c1cc(OC)c(OC)c(OC)c1 (stereo not drawn) [Example 88] | 8.40
25 | CCC(C#N)(CCCNCCOc1ccccc1OC)c1cc(OC)c(OC)c(OC)c1 (stereo not drawn) [Example 90, Alpha-ethyl-alpha-[3-[N-[2-(2-methoxyphenoxy)ethyl]amino]propyl]-3,4,5-trimethoxyphenylacetonitrile] | 8.79
26 | CCCC(C#N)(CCCNCCOc1ccccc1OC)c1cc(OC)c(OC)c(OC)c1 (stereo not drawn) [Example 91] | 8.46
27 | CCCCC(C#N)(CCCNCCOc1ccccc1OC)c1cc(OC)c(OC)c(OC)c1 (stereo not drawn) [Example 92] | 8.57
28 | COc1ccccc1OCCNCCCC(C#N)(CC(C)C)c1cc(OC)c(OC)c(OC)c1 (stereo not drawn) [Example 93, Alpha-isobutyl-alpha-[3-[N-[2-(2-methoxyphenoxy)ethyl]amino]propyl]-3,4,5-trimethoxyphenylacetonitrile] | 8.67
29 | COc1ccc(CCN(C)CCCC(C#N)(c2cc(OC)c(OC)c(OC)c2)C(C)C)cc1OC (stereo not drawn) [Gallopamil, reference compound] | 6.11
30 | COc1ccc(CCN(C)CCCC(C#N)(c2ccc(OC)c(OC)c2)C(C)C)cc1OC (stereo not drawn) [Verapamil, reference compound] | 6.41
